Laboratory results from US9440957B2, “Compounds and compositions for modulating EGFR Activity” (Novartis AG, priority 2012, dated 2016).
Read-outs that look alike come from different tables or passages of the source.

Tests used:
[1] = target: human EGFR L858R (NIH/3T3 cells) (Homo sapiens, UniProt P00533, L858R); assay: EGFR target modulation in engineered NIH/3T3 cell lines (phospho-EGFR Y1068 AlphaLISA), EGFR L858R; type: cell-based; details: engineered NIH/3T3 cells, read-out: NIH3T3 IC50 (μM) EGFR (L858R)
Outline: (§1)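 Engineered NIH/3T3 cells expressing EGFR variants treated 3 h at 37 °C with 12-point 1:3 compound series (top stock 10 μM); only WT cells stimulated with 50 ng/ml EGF for 5 min before lysis. Phospho-Y1068 measured by AlphaLISA with total-EGFR antibody; IC50 from non-linear fitting.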

H1975 (EGFR L858/T790M) = H1975 (EGFR L858/T790M) (Homo sapiens, UniProt P00533, L858R/T790M); assay: EGFR target modulation in H1975 cell line (phospho-EGFR Y1173 ELISA); type: cell-based
Outline: (§2)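 3 h compound exposure of cells in 10% FBS/RPMI, 37 °C; lysis on ice 20 min; lysate captured overnight at 4 °C on anti-EGFR-coated plates; anti-rabbit-HRP, chemiluminescence.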

HCC827 (Del E746-A750) = HCC827 (Del E746-A750) (Homo sapiens, UniProt P00533, DEL746-750); assay: EGFR target modulation in HCC827 cell line (phospho-EGFR Y1173 ELISA); type: cell-based
Outline: as §2

[2] = target: human EGFR L858R/T790M (NIH/3T3 cells) (Homo sapiens, UniProt P00533, L858R/T790M); assay: EGFR target modulation in engineered NIH/3T3 cell lines (phospho-EGFR Y1068 AlphaLISA), EGFR L858R/T790M; type: cell-based; details: engineered NIH/3T3 cells, read-out: NIH3T3 IC50 (μM) EGFR (L858R/T790M)
Outline: as §1

EGFR(L858R/T790M) = target: T1, EGFR(L858R/T790M) (Homo sapiens, UniProt P00533, L858R/T790M); assay: EGFR biochemical assay (HTRF), IC50 determinations
T1 construct: purchased from Carna (GST-a.a. 669-1210)
Outline: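 HTRF kinase reaction with biotin-TK peptide at room temperature, quenched with EDTA at 60 min and detected with PT66K/SAXL after 1 h. Without preincubation, enzyme starts the reaction with compound, ATP and peptide present. With preincubation, compound, enzyme and peptide sit at room temperature for a set time before ATP is added.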

[3] = target: human EGFR WT (NIH/3T3 cells, EGF-induced) (Homo sapiens, UniProt P00533); assay: EGFR target modulation in engineered NIH/3T3 cell lines (phospho-EGFR Y1068 AlphaLISA), EGFR WT; type: cell-based; details: engineered NIH/3T3 cells, read-out: NIH3T3 IC50 (μM) EGFR (WT)
Outline: as §1

[4] = EGFR (L858R/T790M) with 90 min pre-incubation, read-out: IC50 (μM) Column B
[5] = EGFR (L858R/T790M) with no pre-incubation, read-out: IC50 (μM) Column A

Sequence of HCC827 (Del E746-A750) (P00533 with tags, fused parts or gaps DEL746-750): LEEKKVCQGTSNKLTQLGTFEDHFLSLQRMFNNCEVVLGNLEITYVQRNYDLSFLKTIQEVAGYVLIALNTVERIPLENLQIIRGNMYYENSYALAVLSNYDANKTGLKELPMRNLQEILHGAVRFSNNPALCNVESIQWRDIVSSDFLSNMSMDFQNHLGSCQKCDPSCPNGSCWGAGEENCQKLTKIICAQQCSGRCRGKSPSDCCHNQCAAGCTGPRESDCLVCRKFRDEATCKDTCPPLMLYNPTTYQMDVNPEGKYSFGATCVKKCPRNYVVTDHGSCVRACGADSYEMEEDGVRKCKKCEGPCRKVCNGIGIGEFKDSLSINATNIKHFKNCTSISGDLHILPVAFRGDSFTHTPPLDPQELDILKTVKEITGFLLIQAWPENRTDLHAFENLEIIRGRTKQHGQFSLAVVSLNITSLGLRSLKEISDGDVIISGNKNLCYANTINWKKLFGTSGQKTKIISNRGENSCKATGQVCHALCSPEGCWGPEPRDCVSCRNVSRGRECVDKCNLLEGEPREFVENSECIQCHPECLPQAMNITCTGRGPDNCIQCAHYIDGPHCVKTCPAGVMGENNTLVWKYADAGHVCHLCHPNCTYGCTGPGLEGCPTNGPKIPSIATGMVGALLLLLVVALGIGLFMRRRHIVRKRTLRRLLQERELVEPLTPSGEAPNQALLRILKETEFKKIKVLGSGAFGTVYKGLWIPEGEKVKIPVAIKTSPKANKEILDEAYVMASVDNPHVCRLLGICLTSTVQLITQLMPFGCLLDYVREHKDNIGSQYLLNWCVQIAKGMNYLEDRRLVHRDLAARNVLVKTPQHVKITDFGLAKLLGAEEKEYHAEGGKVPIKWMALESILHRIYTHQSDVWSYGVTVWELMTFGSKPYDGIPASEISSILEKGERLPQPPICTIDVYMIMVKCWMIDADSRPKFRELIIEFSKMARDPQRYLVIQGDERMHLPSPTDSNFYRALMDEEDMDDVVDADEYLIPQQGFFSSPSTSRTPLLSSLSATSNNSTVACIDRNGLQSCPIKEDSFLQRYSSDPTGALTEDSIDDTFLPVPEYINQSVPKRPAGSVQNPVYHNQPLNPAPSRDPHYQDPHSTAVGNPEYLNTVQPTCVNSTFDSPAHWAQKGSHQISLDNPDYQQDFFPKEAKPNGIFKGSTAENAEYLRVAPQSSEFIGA
T1 sequence (P00533 669-1210 T790M/L858R): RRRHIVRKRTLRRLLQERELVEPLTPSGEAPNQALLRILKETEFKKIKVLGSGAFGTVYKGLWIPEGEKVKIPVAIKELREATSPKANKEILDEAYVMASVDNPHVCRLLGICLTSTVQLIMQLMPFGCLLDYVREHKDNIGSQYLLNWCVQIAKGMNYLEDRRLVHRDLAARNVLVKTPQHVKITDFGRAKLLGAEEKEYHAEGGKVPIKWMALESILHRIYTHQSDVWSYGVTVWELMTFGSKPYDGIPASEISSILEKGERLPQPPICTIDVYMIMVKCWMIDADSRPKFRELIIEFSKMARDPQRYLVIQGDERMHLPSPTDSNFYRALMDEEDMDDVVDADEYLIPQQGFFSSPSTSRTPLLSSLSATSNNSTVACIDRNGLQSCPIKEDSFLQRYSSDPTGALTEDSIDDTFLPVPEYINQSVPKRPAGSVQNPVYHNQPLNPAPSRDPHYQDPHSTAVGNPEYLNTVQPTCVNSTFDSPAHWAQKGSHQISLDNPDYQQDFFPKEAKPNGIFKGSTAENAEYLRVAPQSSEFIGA
Sequence of human EGFR WT (NIH/3T3 cells, EGF-induced) (P00533 25-1210): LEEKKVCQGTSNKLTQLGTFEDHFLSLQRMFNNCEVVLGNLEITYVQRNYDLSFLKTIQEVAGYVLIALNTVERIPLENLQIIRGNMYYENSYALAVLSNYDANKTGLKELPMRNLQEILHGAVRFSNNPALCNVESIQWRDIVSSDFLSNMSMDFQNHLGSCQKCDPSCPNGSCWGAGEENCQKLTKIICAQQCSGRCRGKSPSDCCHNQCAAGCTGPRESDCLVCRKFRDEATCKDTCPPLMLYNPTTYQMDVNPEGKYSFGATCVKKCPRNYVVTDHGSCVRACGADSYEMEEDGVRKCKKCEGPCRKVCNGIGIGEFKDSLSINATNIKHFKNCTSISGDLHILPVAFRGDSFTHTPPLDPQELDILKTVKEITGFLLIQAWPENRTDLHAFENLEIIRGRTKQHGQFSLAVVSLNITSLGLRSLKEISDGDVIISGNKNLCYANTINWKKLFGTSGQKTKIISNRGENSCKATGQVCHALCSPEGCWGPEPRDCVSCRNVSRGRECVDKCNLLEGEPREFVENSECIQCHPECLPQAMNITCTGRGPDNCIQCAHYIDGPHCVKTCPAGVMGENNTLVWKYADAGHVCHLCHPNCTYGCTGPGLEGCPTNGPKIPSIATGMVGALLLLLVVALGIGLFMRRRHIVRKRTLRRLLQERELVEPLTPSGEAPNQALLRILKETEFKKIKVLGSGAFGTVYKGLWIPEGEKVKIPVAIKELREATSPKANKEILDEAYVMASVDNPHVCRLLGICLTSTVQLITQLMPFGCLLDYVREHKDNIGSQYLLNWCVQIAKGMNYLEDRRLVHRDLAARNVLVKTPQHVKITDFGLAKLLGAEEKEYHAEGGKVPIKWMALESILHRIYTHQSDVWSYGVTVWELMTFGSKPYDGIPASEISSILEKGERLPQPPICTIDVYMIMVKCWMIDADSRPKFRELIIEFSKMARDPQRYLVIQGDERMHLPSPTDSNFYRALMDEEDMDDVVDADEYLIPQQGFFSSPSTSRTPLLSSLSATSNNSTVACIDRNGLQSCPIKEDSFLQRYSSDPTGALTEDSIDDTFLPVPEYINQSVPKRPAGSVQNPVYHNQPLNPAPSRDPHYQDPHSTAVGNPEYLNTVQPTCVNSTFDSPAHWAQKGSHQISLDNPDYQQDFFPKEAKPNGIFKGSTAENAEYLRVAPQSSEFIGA
Sequence of human EGFR L858R (NIH/3T3 cells) (P00533 25-1210 L858R): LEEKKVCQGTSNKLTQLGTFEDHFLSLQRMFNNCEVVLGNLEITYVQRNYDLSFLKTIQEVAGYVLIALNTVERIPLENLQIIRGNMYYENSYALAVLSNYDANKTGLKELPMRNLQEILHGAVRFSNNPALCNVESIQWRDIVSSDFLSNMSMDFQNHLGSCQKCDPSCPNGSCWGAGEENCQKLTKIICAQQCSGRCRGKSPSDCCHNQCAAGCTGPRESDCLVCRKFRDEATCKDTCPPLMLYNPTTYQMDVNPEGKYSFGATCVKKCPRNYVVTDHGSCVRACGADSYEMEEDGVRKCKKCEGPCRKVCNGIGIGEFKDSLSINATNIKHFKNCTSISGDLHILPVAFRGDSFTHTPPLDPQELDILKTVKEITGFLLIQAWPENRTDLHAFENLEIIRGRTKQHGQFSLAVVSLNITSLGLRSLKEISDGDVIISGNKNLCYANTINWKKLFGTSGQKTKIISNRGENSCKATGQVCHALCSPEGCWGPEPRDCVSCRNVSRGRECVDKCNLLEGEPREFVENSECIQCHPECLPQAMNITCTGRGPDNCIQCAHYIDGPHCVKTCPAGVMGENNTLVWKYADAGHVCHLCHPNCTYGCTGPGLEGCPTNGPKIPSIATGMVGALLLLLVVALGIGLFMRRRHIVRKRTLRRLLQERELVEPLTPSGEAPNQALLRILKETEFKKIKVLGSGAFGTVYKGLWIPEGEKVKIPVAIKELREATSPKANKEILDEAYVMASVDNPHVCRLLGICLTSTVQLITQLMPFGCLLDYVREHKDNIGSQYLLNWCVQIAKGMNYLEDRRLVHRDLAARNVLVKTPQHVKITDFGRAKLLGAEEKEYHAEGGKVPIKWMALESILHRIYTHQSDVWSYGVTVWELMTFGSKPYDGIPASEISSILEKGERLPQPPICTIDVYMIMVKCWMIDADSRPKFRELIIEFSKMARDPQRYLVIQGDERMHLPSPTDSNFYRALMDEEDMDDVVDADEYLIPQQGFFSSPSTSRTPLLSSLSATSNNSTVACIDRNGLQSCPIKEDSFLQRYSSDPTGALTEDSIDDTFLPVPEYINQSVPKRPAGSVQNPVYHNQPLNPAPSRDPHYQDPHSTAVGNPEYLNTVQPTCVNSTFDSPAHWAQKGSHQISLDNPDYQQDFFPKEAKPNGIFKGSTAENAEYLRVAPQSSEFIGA

Row | SMILES | IC50 [1] [µM] | IC50 (H1975 (EGFR L858/T790M)) [nM] | IC50 (HCC827 (Del E746-A750)) [nM] | IC50 [2] [µM] | IC50 (EGFR(L858R/T790M); [4]) [µM] | IC50 (EGFR(L858R/T790M); [5]) [µM] | IC50 [3] [µM]
1 | C=CC(=O)N1CCCC[C@@H](n2c(NC(=O)c3ccnc(C)c3)nc3cc(CN4CC[C@H](F)C4)cc(C)c32)C1 [Example 17-147] | < 0.001 | < 1 | < 1 | < 0.001 | < 0.001 | 0.002 | 0.025
2 | C=CC(=O)N1CCCC[C@@H](n2c(NC(=O)c3ccnc(C)c3)nc3cc(CN4CC[C@@H](F)C4)cc(C)c32)C1 [Example 17-148] | 0.001 | 1 | < 1 | 0.002 | < 0.001 | 0.002 | 0.083
3 | C=CC(=O)N1CCCC[C@@H](n2c(NC(=O)c3ccnc(C)c3)nc3cc(CN4CC[C@H](OC)C4)cc(C)c32)C1 [Example 17-149] | < 0.001 | < 1 | < 1 | < 0.001 | < 0.001 | 0.002 | 0.015
4 | C=CC(=O)N1CCCC[C@@H](n2c(NC(=O)c3ccnc(C)c3)nc3cc(CN4CC[C@@H](OC)C4)cc(C)c32)C1 [Example 17-150] | 0.001 | 2 | < 1 | 0.001 | < 0.001 | 0.003 | 0.042
5 | C=CC(=O)N1CCCC[C@@H](n2c(NC(=O)c3ccnc(C)c3)nc3cc(CN4CC(F)C4)cc(C)c32)C1 [Example 17-152] | < 0.001 | 1 | < 1 | 0.001 | < 0.001 | 0.002 | 0.032
6 | C=CC(=O)N1CCCC[C@@H](n2c(NC(=O)c3ccnc(C)c3)nc3cc(CN4CC(OC)C4)cc(C)c32)C1 [Example 17-154] | < 0.001 | < 1 | < 1 | 0.001 | < 0.001 | 0.002 | 0.01
